Test results published in US5438052A, “Cephalosporin derivatives” (Hoffmann-La Roche Inc., priority 1991, dated 1995).
≈ marks a conversion by molar mass, not a printed value. Read-outs that look alike come from different tables or passages of the source.

Tests used:
S. aureus Schoch = assay: Experimental systemic septicaemia in the mouse; format: in vivo; settings: Staphylococcus aureus, sc, 96 h
How it was run: (§1)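 ED50 in mg/kg s.c. is the Probit-derived dose protecting half the mice, judged on survival 4 days after i.p. challenge (about 5-100× 48 h LD50) in 16-20 g albino mice, 5 per group. Dosing was s.c. in 2% Tween 80 at 1 and 3 h, plus 5 h for P. aeruginosa.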

E. coli 25922 [1] = assay: Experimental systemic septicaemia in the mouse; format: in vivo; settings: 96 h
How it was run: as §1

[2] = system: Pseudomonas aeruginosa BA; assay: Experimental systemic septicaemia in the mouse; format: in vivo; settings: sc, 96 h
How it was run: as §1

P. aeruginosa MK1184 = assay: Minimum inhibitory concentration in vitro, agar dilution method; format: cell-based; settings: Pseudomonas aeruginosa
Source text: (§2) 1. Minimum Inhibitory Concentration in vitro
(§3) The activities ascertained, minimum inhibitory concentration (MIC) in μg/ml, are compiled in Table 1 hereinafter: […]

C. freundii 902 = assay: as above; format: cell-based; settings: Citrobacter freundii
Source text: as §2, §3

S. aureus 6538 = assay: as above; format: cell-based; settings: Staphylococcus aureus
Source text: as §2, §3

E. cloacae 908SSi = assay: as above; format: cell-based; settings: Enterobacter cloacae
Source text: as §2, §3

P. aeruginosa 799/WT = assay: as above; format: cell-based; settings: Pseudomonas aeruginosa
Source text: as §2, §3

K. oxytoca 1082 = assay: as above; format: cell-based; settings: Klebsiella oxytoca
Source text: as §2, §3

P. mirabilis 2117 = assay: as above; format: cell-based; settings: Proteus mirabilis
Source text: as §2, §3

S. pyogenes 15 = assay: as above; format: cell-based; settings: Streptococcus pyogenes
Source text: as §2, §3

E. cloacae P99 = assay: as above; format: cell-based; settings: Enterobacter cloacae
Source text: as §2, §3

P. aeruginosa BA = assay: as above; format: cell-based; settings: Pseudomonas aeruginosa
Source text: as §2, §3

K. pneumoniae 418 = assay: as above; format: cell-based; settings: Klebsiella pneumoniae
Source text: as §2, §3

E. coli 25922 [3] = assay: as above; format: cell-based; settings: Escherichia coli
Source text: as §2, §3

P. aeruginosa 799/61 = assay: as above; format: cell-based; settings: Pseudomonas aeruginosa
Source text: as §2, §3

P. aeruginosa 27853 = assay: as above; format: cell-based; settings: Pseudomonas aeruginosa
Source text: as §2, §3

S. marcescens 69438 = assay: as above; format: cell-based; settings: Serratia marcescens
Source text: as §2, §3

P. vulgaris 1028 = assay: as above; format: cell-based; settings: Proteus vulgaris
Source text: as §2, §3

E. aerogenes CF153 = assay: as above; format: cell-based; settings: Klebsiella aerogenes, CF153
Source text: as §2, §3

E. cloacae 908R = assay: as above; format: cell-based; settings: Enterobacter cloacae
Source text: as §2, §3

S. pneumoniae BA = assay: as above; format: cell-based; settings: Streptococcus pneumoniae
Source text: as §2, §3

[4] = S. aureus Schoch, albino mice, s.c. 1 and 3 hours after infection, survival after 4 days, read-out: ED50
[5] = Escherichia coli, sc, E. coli 25922, albino mice, s.c. 1 and 3 hours after infection, survival after 4 days, read-out: ED50
[6] = P. aeruginosa BA, albino mice, s.c. 1, 3 and 5 hours after infection, survival after 4 days, read-out: ED50
[7] = P. aeruginosa MK1184, agar dilution, read-out: MIC
[8] = C. freundii 902, agar dilution, read-out: MIC
[9] = S. aureus 6538, agar dilution, read-out: MIC
[10] = E. cloacae 908SSi, agar dilution, read-out: MIC
[11] = P. aeruginosa 799/WT, agar dilution, read-out: MIC
[12] = K. oxytoca 1082, agar dilution, read-out: MIC
[13] = P. mirabilis 2117, agar dilution, read-out: MIC
[14] = S. pyogenes 15, agar dilution, read-out: MIC
[15] = S. pneumoniae BA, agar dilution, read-out: MIC
[16] = P. aeruginosa BA, agar dilution, read-out: MIC
[17] = K. pneumoniae 418, agar dilution, read-out: MIC
[18] = E. coli 25922, agar dilution, read-out: MIC
[19] = P. aeruginosa 799/61, agar dilution, read-out: MIC
[20] = P. aeruginosa 27853, agar dilution, read-out: MIC
[21] = S. marcescens 69438, agar dilution, read-out: MIC
[22] = P. vulgaris 1028, agar dilution, read-out: MIC
[23] = E. cloacae 908R, agar dilution, read-out: MIC

| SMILES | MIC (E. cloacae P99) | ED50 (S. aureus Schoch; [4]) | ED50 (E. coli 25922 [1]; [5]) | ED50 [2, 6] | MIC (P. aeruginosa MK1184; [7]) | MIC (C. freundii 902; [8]) | MIC (S. aureus 6538; [9]) | MIC (E. cloacae 908SSi; [10]) | MIC (P. aeruginosa 799/WT; [11]) | MIC (K. oxytoca 1082; [12]) | MIC (P. mirabilis 2117; [13]) | MIC (S. pyogenes 15; [14]) | MIC (S. pneumoniae BA; [15]) | MIC (P. aeruginosa BA; [16]) | MIC (K. pneumoniae 418; [17]) | MIC (E. coli 25922 [3]; [18]) | MIC (P. aeruginosa 799/61; [19]) | MIC (P. aeruginosa 27853; [20]) | MIC (S. marcescens 69438; [21]) | MIC (P. vulgaris 1028; [22]) | further results |
| --- | --- | --- | --- | --- | --- | --- | --- | --- | --- | --- | --- | --- | --- | --- | --- | --- | --- | --- | --- | --- | --- |
| Cc1cc(SCC2=C(C(=O)[O-])N3C(=O)[C@@H](NC(=O)/C(=N\OCc4ccc(O)c(O)c4)c4csc(N)n4)[C@H]3SC2)n2nc(CS(=O)(=O)c3ccc(O)c(O)c3)nc2n1.[Na+] [Example 11, (6R,7R)-7-[(Z)-2-(2-amino-4-thiazolyl)-2-[[(3,4-dihydroxybenzyl)oxy]imino]acetamido]-3-[[[2-[[(3,4-dihydroxyphenyl)sulphonyl]methyl]-5-methyl-s-triazolo[1,5-a]pyrimidin-7-yl]thio]methyl]-8-oxo-5-thia-1-azabicyclo[4.2.0]oct-2-ene-2-carboxylic acid sodium salt (1:1)] | 16 µg/mL |  |  |  |  |  |  |  |  |  |  |  |  |  |  |  |  |  |  |  | ED50 (S. aureus Schoch): 3.5 mg/kg; ED50 (E. coli 25922 [1]; Escherichia coli, 25922, sc): < 0.05 mg/kg; ED50 [2]: 0.035 mg/kg; MIC (P. aeruginosa MK1184; MK1184): < 0.1 µg/mL; MIC (C. freundii 902; 902): 0.12 µg/mL; MIC (S. aureus 6538; 6538): 8 µg/mL; MIC (E. cloacae 908SSi; 908SSI): 4 µg/mL; MIC (P. aeruginosa 799/WT; 799/WT): 0.12 µg/mL; MIC (K. oxytoca 1082; 1082): < 0.1 µg/mL; MIC (P. mirabilis 2117; 2117): 0.12 µg/mL; MIC (S. pyogenes 15; 15): 2 µg/mL; MIC (P. aeruginosa BA): 0.12 µg/mL; MIC (K. pneumoniae 418; 418): < 0.1 µg/mL; MIC (E. coli 25922 [3]; 25922): < 0.1 µg/mL; MIC (P. aeruginosa 799/61; 799/61): < 0.1 µg/mL; MIC (P. aeruginosa 27853; 27853): < 0.1 µg/mL; MIC (S. marcescens 69438; 69438): 0.25 µg/mL; MIC (P. vulgaris 1028; 1028): 0.25 µg/mL; MIC (E. aerogenes CF153): 1 µg/mL; MIC (E. cloacae 908R; 908R): 2 µg/mL |
| Nc1nc(/C(=N/OCc2cc(=O)c(O)co2)C(=O)N[C@@H]2C(=O)N3C(C(=O)O)=C(CSc4cc(-c5ccc(O)c(O)c5)nc5ccnn45)CS[C@H]23)cs1 [Example 14, (6R,7R)-7-[(Z)-2-(2-amino-4-thiazolyl)-2-[[(5-hydroxy-4-oxo-4H-pyran-2-yl)methoxy]imino]acetamido]-3-[[[5-(3,4-dihydroxyphenyl)pyrazolo[1,5-a]pyrimidin-7-yl]thio]methyl]-8-oxo-5-thia-1-azabicyclo[4.2.0]oct-2-ene-2-carboxylicacid] | 16 µg/mL (≈ 20.9 µM) | > 12 mg/kg | 4.4 mg/kg | 7.1 mg/kg | 16 µg/mL (≈ 20.9 µM) | 1 µg/mL (≈ 1.31 µM) | 16 µg/mL (≈ 20.9 µM) | 1 µg/mL (≈ 1.31 µM) | 1 µg/mL (≈ 1.31 µM) | 0.12 µg/mL (≈ 0.157 µM) | 0.5 µg/mL (≈ 0.654 µM) | 0.5 µg/mL (≈ 0.654 µM) | 0.5 µg/mL (≈ 0.654 µM) | 4 µg/mL (≈ 5.23 µM) | 0.06 µg/mL (≈ 0.0785 µM) | 0.12 µg/mL (≈ 0.157 µM) | 0.06 µg/mL (≈ 0.0785 µM) | 4 µg/mL (≈ 5.23 µM) | 0.25 µg/mL (≈ 0.327 µM) | 0.25 µg/mL (≈ 0.327 µM) | MIC (E. cloacae 908R; [23]): 2 µg/mL (≈ 2.62 µM) |
| Cc1cc(SCC2=C(C(=O)O)N3C(=O)[C@@H](NC(=O)/C(=N\OC(C)(C)C(=O)NNC(=O)c4ccc(O)c(O)c4)c4csc(N)n4)[C@H]3SC2)n2nc(COC(=O)c3ccc(O)c(O)c3)nc2n1 [Example 43] | 0.12 µg/mL (≈ 0.126 µM) | 12 mg/kg | 0.05 mg/kg | 0.019 mg/kg | < 0.1 µg/mL | < 0.1 µg/mL | 16 µg/mL (≈ 16.8 µM) | 2 µg/mL (≈ 2.11 µM) | < 0.1 µg/mL | < 0.1 µg/mL | 0.12 µg/mL (≈ 0.126 µM) | 8 µg/mL (≈ 8.42 µM) | 4 µg/mL (≈ 4.21 µM) | < 0.1 µg/mL | < 0.1 µg/mL | < 0.1 µg/mL | < 0.1 µg/mL | 0.25 µg/mL (≈ 0.263 µM) | 0.12 µg/mL (≈ 0.126 µM) | 0.12 µg/mL (≈ 0.126 µM) | MIC (E. cloacae 908R; [23]): 0.12 µg/mL (≈ 0.126 µM) |
| Cc1cc(SCC2=C(C(=O)O)N3C(=O)[C@@H](NC(=O)/C(=N\OC(C)(C)C(=O)NNC(=O)c4ccc(O)c(O)c4)c4csc(N)n4)[C@H]3SC2)n2nc(CS(=O)(=O)c3ccc(O)c(O)c3)nc2n1 [Example 44] |  | > 12 mg/kg | < 0.05 mg/kg | < 0.01 mg/kg | 0.12 µg/mL (≈ 0.124 µM) | 0.25 µg/mL (≈ 0.258 µM) | 32 µg/mL (≈ 33 µM) | 8 µg/mL (≈ 8.25 µM) | 0.12 µg/mL (≈ 0.124 µM) | < 0.1 µg/mL | 0.25 µg/mL (≈ 0.258 µM) | 8 µg/mL (≈ 8.25 µM) | 1 µg/mL (≈ 1.03 µM) | < 0.1 µg/mL | < 0.1 µg/mL | < 0.1 µg/mL | < 0.1 µg/mL | 0.5 µg/mL (≈ 0.515 µM) | 0.25 µg/mL (≈ 0.258 µM) | 0.25 µg/mL (≈ 0.258 µM) | MIC (E. cloacae 908R; [23]): 1 µg/mL (≈ 1.03 µM) |
| Cc1cc(SCC2=C(C(=O)[O-])N3C(=O)[C@@H](NC(=O)/C(=N\OC(C)(C)C(=O)NNC(=O)c4ccc(O)c(O)c4)c4csc(N)n4)[C@H]3SC2)n2nc(CNC(=O)c3ccc(O)c(O)c3)nc2n1.[Na+] [Example 61, (6R,7R)-7-[(Z)-2-(2-amino-4-thiazolyl)-2-[[1-[3-(3,4-dihydroxybenzoyl)carbazoyl]-1-methylethoxy]imino]acetamido]-3-[[[2-[[(3,4-dihydroxybenzoyl)amino]methyl]-5-methyl-s-triazolo[1,5-a]pyrimidin-7-yl]thio]methyl]-8-oxo-5-thiaazabicyclo[4.2.0]oct-2-ene-2-carboxylic acid sodium salt (1:1)] | 1 µg/mL |  |  |  |  |  |  |  |  |  |  |  |  |  |  |  |  |  |  |  | ED50 (S. aureus Schoch): 8.4 mg/kg; ED50 (E. coli 25922 [1]; Escherichia coli, 25922, sc): < 0.1 mg/kg; ED50 [2]: 0.06 mg/kg; MIC (P. aeruginosa MK1184; MK1184): < 0.1 µg/mL; MIC (C. freundii 902; 902): < 0.1 µg/mL; MIC (S. aureus 6538; 6538): 16 µg/mL; MIC (E. cloacae 908SSi; 908SSI): 1 µg/mL; MIC (P. aeruginosa 799/WT; 799/WT): < 0.1 µg/mL; MIC (K. oxytoca 1082; 1082): < 0.1 µg/mL; MIC (P. mirabilis 2117; 2117): < 0.1 µg/mL; MIC (S. pyogenes 15; 15): 1 µg/mL; MIC (S. pneumoniae BA): 4 µg/mL; MIC (P. aeruginosa BA): < 0.1 µg/mL; MIC (K. pneumoniae 418; 418): < 0.1 µg/mL; MIC (E. coli 25922 [3]; 25922): < 0.1 µg/mL; MIC (P. aeruginosa 799/61; 799/61): < 0.1 µg/mL; MIC (P. aeruginosa 27853; 27853): < 0.1 µg/mL; MIC (S. marcescens 69438; 69438): < 0.1 µg/mL; MIC (P. vulgaris 1028; 1028): < 0.1 µg/mL; MIC (E. cloacae 908R; 908R): 0.5 µg/mL |
